Assay results from PubChem BioAssay (NCI).
Values joined by “and” are separate entries in the source; they are usually repeats but may differ in a detail not shown here. Equal entries are not always repeated.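 Five concentrations, 48 hours, 96-well plates. GI50: concentration for 50% inhibition of growth. At the TGI there is no net growth.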

Key:
Test in all cases: DTP human tumour cell line panel, 48 h
ACHN renal = system: ACHN renal
HCT-15 colon = system: HCT-15 colon
K-562 leukemia = system: K-562 leukemia
MOLT-4 leukemia = system: MOLT-4 leukemia
NCI-H522 lung = system: NCI-H522 lung
OVCAR-4 ovarian = system: OVCAR-4 ovarian
SF-268 CNS = system: SF-268 CNS
SF-295 CNS = system: SF-295 CNS
SK-MEL-2 melanoma = system: SK-MEL-2 melanoma
SK-OV-3 ovarian = system: SK-OV-3 ovarian

| Structure (SMILES) | GI50 (ACHN renal) | TGI (ACHN renal) | GI50 (HCT-15 colon) | TGI (HCT-15 colon) | GI50 (K-562 leukemia) | TGI (K-562 leukemia) | GI50 (MOLT-4 leukemia) | TGI (MOLT-4 leukemia) | GI50 (NCI-H522 lung) | TGI (NCI-H522 lung) | GI50 (OVCAR-4 ovarian) | TGI (OVCAR-4 ovarian) | GI50 (SF-268 CNS) | TGI (SF-268 CNS) | GI50 (SF-295 CNS) | TGI (SF-295 CNS) | GI50 (SK-MEL-2 melanoma) | TGI (SK-MEL-2 melanoma) | GI50 (SK-OV-3 ovarian) | TGI (SK-OV-3 ovarian) |
| --- | --- | --- | --- | --- | --- | --- | --- | --- | --- | --- | --- | --- | --- | --- | --- | --- | --- | --- | --- | --- |
| COc1cc(CNCCCN2C(=O)c3ccc4c5c(ccc(c35)C2=O)C(=O)N(CCCNCc2cc(OC)c(OC)c(OC)c2)C4=O)cc(OC)c1OC | 0.841 µM | 3.17 µM | 1.18 µM | 3.55 µM | 0.309 µM | 2.85 µM | 0.147 µM | 0.6 µM | 0.409 µM | 1.14 µM | 0.0751 µM | 0.149 µM | 0.542 µM | 2.27 µM | 0.517 µM | 1.55 µM | 0.562 µM | 1.52 µM | 1.01 µM | 2.65 µM |
| CCC1C2C=CC(CC2)N1S(=O)(=O)c1ccc(C)cc1 (stereo unspecified) | – | > 100 µM | – | 73.5 µM | – | > 100 µM | – | > 100 µM | – | 61.5 µM | – | > 100 µM | – | 67.3 µM | – | > 100 µM | – | 28.3 µM | – | 89.6 µM |
| Cc1ccc(S(=O)(=O)N/N=C/c2oc(-c3ccncc3)c(-c3ccncc3)c2[N+](=O)[O-])cc1 | – | > 100 µM | – | > 100 µM | – | > 100 µM | – | > 100 µM | – | > 100 µM | – | > 100 µM | – | > 100 µM | – | > 100 µM | – | > 100 µM | – | > 100 µM |
| COc1cc(C2c3cc4c(cc3C(O)C(CO)C2CO)OCO4)cc(OC)c1OC (stereo unspecified) | 8.09 µM | > 100 µM | 4.41 µM | > 100 µM | 0.432 µM | > 100 µM | 1.59 µM | > 100 µM | 0.38 µM | – | 7.6 µM | > 100 µM | 3.32 µM | > 100 µM | 0.219 µM | 0.468 µM | – | > 100 µM | 1.57 µM | > 100 µM |
| O=C(c1c(F)ccc(NS(=O)(=O)N2CC[C@@H](F)C2)c1F)c1c[nH]c2ncc(-c3cnc(C4CC4)nc3)cc12 | 4.91 µM and 4.34 µM | > 65.9 µM | 5.69 µM and 5.21 µM | > 10 µM and 40.6 µM | 3.68 µM and 3.12 µM | > 100 µM | 6.66 µM and 5.12 µM | > 10 µM and 35.5 µM | 3.05 µM and 4.34 µM | > 10 µM and 22.7 µM | 6.02 µM and 4.39 µM | > 69.7 µM | 5.86 µM and 6.77 µM | > 10 µM and 71.3 µM | 5.87 µM and 4.71 µM | > 10 µM and 33.5 µM | 2.17 µM and 3.25 µM | > 8.34 µM and 15.7 µM | 3.39 µM and 3.66 µM | > 10 µM and 21.4 µM |
| CCN1CCN=c2c3cc(OC)ccc3n3cnc4ccc1c2c43 | – | 0.792 µM | – | 0.432 µM | – | 0.4 µM | – | 1.57 µM | – | 0.207 µM | – | 1.86 µM | – | 4.69 µM | – | 1.29 µM | – | 0.808 µM | – | 1.79 µM |
| CCN(CC)c1nc(-c2ccc(Cl)cc2Cl)nc2ccccc12 | 15.8 µM | 50.4 µM | 19.3 µM | 48.9 µM | 30.8 µM | > 100 µM | 42.9 µM | > 100 µM | 29.2 µM | > 74.9 µM | 51.6 µM | > 100 µM | 23.1 µM | > 68.8 µM | 22.8 µM | 62.4 µM | > 41.8 µM | > 67.7 µM | 26.5 µM | > 79.9 µM |
| O=C(O)CSc1n[nH]c(-c2ccccc2)n1 | – | > 100 µM | – | > 100 µM | – | > 100 µM | – | > 100 µM | – | > 100 µM | – | > 100 µM | – | > 100 µM | – | > 100 µM | – | > 100 µM | – | > 100 µM |
| Cc1csc(Nc2nc(-c3cccc(Br)c3)nc(C(Cl)(Cl)Cl)n2)n1 | 0.475 µM | 2.97 µM | 4.95 µM | > 100 µM | > 24.9 µM | > 100 µM | > 40.9 µM | > 100 µM | > 100 µM | > 100 µM | > 100 µM | > 100 µM | 4.65 µM | > 100 µM | 2.17 µM | > 100 µM | > 100 µM | > 100 µM | > 100 µM | > 100 µM |
| COc1ccc(-c2oc(=O)ccc2-c2cc(OC)c(OC)c(OC)c2)cc1F | 25.2 µM | > 100 µM | 5.42 µM | > 100 µM | 4.08 µM | > 100 µM | 22.4 µM | > 100 µM | 3.04 µM | 23.6 µM | 36.5 µM | > 100 µM | 33.6 µM | > 100 µM | 6.67 µM | 89.7 µM | 6.98 µM | > 100 µM | 80 µM | > 100 µM |
| O=c1n(-c2ccccc2)c(=O)n2n1C1C=CC2C2C(C1)C2(Cl)Cl (stereo unspecified) | – | > 100 µM | – | > 100 µM | – | > 100 µM | – | > 100 µM | – | > 100 µM | – | > 100 µM | – | > 100 µM | – | > 100 µM | – | > 100 µM | – | > 100 µM |
| N=c1ccn2c(n1)OC1C(O)C(CO)OC12 (stereo unspecified) | 0.237 µM | 14 µM and 3.49 µM | – | > 1000 µM | 81.4 µM | > 1000 µM | 0.016 µM | – | > 100 µM | > 1000 µM | > 100 µM | > 1000 µM | 2.41 µM | > 619 µM | 5.93 µM | 359 µM and > 100 µM | > 100 µM | > 1000 µM | 5.43 µM | > 696 µM |
| Oc1cc(O)c2c(c1)OC(c1ccc(O)c(O)c1)C(OC1(c3cc(O)c(O)c(O)c3)Oc3cc(O)cc(O)c3C(O)C1O)C2 (stereo unspecified) | – | > 100 µM | – | > 100 µM | – | 43.6 µM | – | 52.8 µM | – | 49.7 µM | – | 67.3 µM | – | 66.2 µM | – | > 100 µM | – | > 69.9 µM | – | > 100 µM |
| O=C1c2ccccc2C2(O)c3cc4ccccc4cc3OC12O (stereo unspecified) | – | > 100 µM | – | > 100 µM | – | > 100 µM | – | > 100 µM | – | > 100 µM | – | > 100 µM | – | > 100 µM | – | > 100 µM | – | > 100 µM | – | > 100 µM |
| Cc1ccc(-c2nc3ccc([N+](=O)[O-])cc3[nH]2)cc1 | – | > 100 µM | – | > 100 µM | – | > 100 µM | – | > 100 µM | – | > 100 µM | – | > 100 µM | – | > 100 µM | – | > 100 µM | – | > 100 µM | – | > 100 µM |
| C=CCCCCCCCCCCC1(O)C=CC2=[N+](CCCCCN=C(N)N)CCCN21 (stereo unspecified) | 11.5 µM | 24.5 µM | 4.87 µM | 18.6 µM | 2.76 µM | 15.9 µM | 4.4 µM | 20.4 µM | 3.6 µM | 18.4 µM | 4.84 µM | 19.9 µM | 7.7 µM | 26.7 µM | 7.2 µM | 24.9 µM | 21.3 µM | 47.2 µM | 19.1 µM | 38.5 µM |
| CCOC(=O)C(=Cc1cccc(Cl)c1)C(=O)OCC | 1.89 µM | 4.23 µM | 1.96 µM | 5.27 µM | 3.18 µM | > 100 µM | 3.08 µM | 9.81 µM | 1.53 µM | 3.21 µM | 2.66 µM | 8.87 µM | 2.54 µM | 7.96 µM | 3.61 µM | 13.4 µM | 2.1 µM | 4.24 µM | 10.6 µM | 22.4 µM |
| CC(=O)n1c2c(c(=O)n1-c1ccccc1)S(=O)CCC2 (stereo unspecified) | – | > 100 µM | – | > 100 µM | – | > 100 µM | – | 6.9 µM | – | 16.3 µM | – | 44.4 µM | – | > 100 µM | – | > 100 µM | – | > 100 µM | – | > 100 µM |
| C[C@H]1Oc2cc(cnc2N)-c2c(nn(C)c2C#N)CN(C)C(=O)c2ccc(F)cc21 | 22.8 µM | > 100 µM | 47 µM | > 100 µM | > 100 µM | > 100 µM | > 93.7 µM | > 100 µM | 57 µM | > 100 µM | > 100 µM | > 100 µM | 27.1 µM | > 100 µM | 47.9 µM | > 100 µM | 78 µM | > 100 µM | 22.1 µM | > 87 µM |
| O=C(CSc1nnc(-c2ccc(N=Cc3ccc(Cl)cc3)cc2)o1)Nc1ccc(Cl)cc1 | – | > 100 µM | – | > 100 µM | – | > 100 µM | – | > 100 µM | – | > 100 µM | – | > 100 µM | – | > 100 µM | – | > 100 µM | – | > 100 µM | – | > 100 µM |
| O=c1[nH]c(=O)n(C2CC(O)C(CO)O2)cc1CO (stereo unspecified) | > 100 µM | > 100 µM | > 100 µM | > 100 µM | > 100 µM | > 100 µM | > 100 µM | > 100 µM | > 100 µM | > 100 µM | > 100 µM | > 100 µM | > 100 µM | > 100 µM | > 100 µM | > 100 µM | > 100 µM | > 100 µM | > 100 µM | > 100 µM |
| CCOC(=O)C1(c2ccccc2)CCC(=O)CC1 | – | > 100 µM | – | > 100 µM | – | > 100 µM | – | > 100 µM | – | > 100 µM | – | > 100 µM | – | > 100 µM | – | > 100 µM | – | > 100 µM | – | > 100 µM |
| CC(=O)O[C@H]1CCC2[C@@H]3CCC4=C(O)c5nocc5C[C@]4(C)C3CC[C@@]21C (stereo partly specified) | – | > 100 µM | – | > 100 µM | – | > 100 µM | – | > 100 µM | – | > 100 µM | – | > 100 µM | – | > 100 µM | – | > 100 µM | – | > 100 µM | – | > 100 µM |
| CC(=O)OC12c3ccccc3-c3ccccc3C1C1C(=O)N(C)C(=O)C12Cl (stereo unspecified) | – | > 10 µM | – | > 10 µM | – | > 10 µM | – | > 10 µM | – | > 10 µM | – | > 10 µM | – | > 10 µM | – | > 10 µM | – | > 10 µM | – | > 10 µM |
